Key:
Atu0526 [1] = target: T1, Atu0526 (Agrobacterium fabrum, UniProt Q7D199, R115A); experiment: isothermal titration calorimetry (no significant Tm shift in thermo shift assay); assay type: binding
T1 construct: gene mclA; periplasmic domain (Atu0526 LBD R115A; LBD from 36th residue to 197th residue)

Atu0526 [2] = target: T2, Atu0526 (Agrobacterium fabrum, UniProt Q7D199); experiment: isothermal titration calorimetry; thermo shift assay (Tm […] to […] °C); assay type: binding
T2 construct: gene mclA; periplasmic domain (LBD, from 36th residue to 197th residue), His-tagged, pET30a
T2 sequence (Q7D199 entry or part of it): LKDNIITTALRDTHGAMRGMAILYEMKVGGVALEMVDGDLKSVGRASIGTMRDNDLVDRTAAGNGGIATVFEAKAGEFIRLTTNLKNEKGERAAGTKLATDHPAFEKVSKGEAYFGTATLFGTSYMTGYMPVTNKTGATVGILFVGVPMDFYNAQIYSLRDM

T1 sequence (Q7D199 entry or part of it R115A): as the sequence (Q7D199 entry or part of it) above

## O=CO [formic acid]
Atu0526 [1]
  Kd: 22.9 ± 5.36 µM
Atu0526 [2]
  Kd: 172 ± 53.6 µM

Source: publication PMC8698456, “Agrobacterium fabrum atu0526-Encoding Protein Is the Only Chemoreceptor That Regulates Chemoattraction toward the Broad Antibacterial Agent Formic Acid” (Biology, 2021)
